Structures are written as SMILES.

This is an account of results in PMC9866095, “Efficient Synthesis and In Vitro Hypoglycemic Activity of Rare Apigenin Glycosylation Derivatives” (Molecules, 2023).

In this assay the target is α-glucosidase. Briefly: pNPG hydrolysis, absorbance at […] nm, commercial enzyme. In kind it is biochemical.
Consider `O=c1cc(-c2ccc(O)cc2)oc2cc(O[C@@H]3O[C@H](CO)[C@@H](O)[C@H](O)[C@H]3O)cc(O)c12` [AG, apigenin-7-O-β-(6″-O)-D-glucoside], for which half-maximal inhibition (IC50) was put at 532 µM.

Compound `O=c1cc(-c2ccc(O)cc2)oc2cc(O)cc(O)c12` [Apigenin] displayed a half-maximal inhibitory concentration (IC50) of 525 µM.

The compound `O=C(O)CCC(=O)OC[C@H]1O[C@@H](Oc2cc(O)c3c(=O)cc(-c4ccc(O)cc4)oc3c2)[C@H](O)[C@@H](O)[C@@H]1O` [SAG, apigenin-7-O-β-(6″-O-succinyl)-D-glucoside] came in with an IC50 of 485 µM.

For orientation: IC50 means the concentration at which inhibition is half-maximal. Lower therefore signals higher potency.
